# Values of other authors, collected in patent publication US10758506B2, “Amino acid compositions for the treatment of porcine epidemic diarrhea” (priority 2014, dated 2020).
# Settings: Health Phys., 106(6):734-44, 2014
row,SMILES,active anion secretion and/or paracellular permeability
1,N=C(N)NCCC[C@H](N)C(=O)O [Arginine],activate active anion secretion and/or increase paracellular permeability
2,C[C@H](N)C(=O)O [alanine],activate active anion secretion and/or increase paracellular permeability
3,NC(=O)C[C@H](N)C(=O)O [asparagine],activate active anion secretion and/or increase paracellular permeability
4,N[C@@H](CS)C(=O)O [cysteine],activate active anion secretion and/or increase paracellular permeability
5,N[C@@H](CCC(=O)O)C(=O)O [glutamic acid],activate active anion secretion and/or increase paracellular permeability
6,NC(=O)CC[C@H](N)C(=O)O [glutamine],activate active anion secretion and/or increase paracellular permeability
7,N[C@@H](Cc1c[nH]cn1)C(=O)O [histidine],activate active anion secretion and/or increase paracellular permeability
8,CC(C)C[C@H](N)C(=O)O [leucine],activate active anion secretion and/or increase paracellular permeability
9,CSCC[C@H](N)C(=O)O [methionine],activate active anion secretion and/or increase paracellular permeability
10,N[C@@H](Cc1ccccc1)C(=O)O [phenylalanine],activate active anion secretion and/or increase paracellular permeability
